Measurements published in publication PMC4195615, “Inhibition Effect of a Custom Peptide on Lung Tumors” (PLoS ONE, 2014).

Legend:
[1] = system: normal lung cell versus cancerous lung cell; details: general statement, no reference given; cited from earlier work
Excerpt: IC50 is the chemical concentration that produces 50% cell survival. The selectivity index of a lung cancer drug is a measure of how specific its killing action is to cancer cells. It is the ratio of its IC50 for a normal lung cell to its IC50 for a cancerous lung cell.

[2] = 100 mg/m^2 in a three-week cycle; cited from earlier work
Experimental: Drugs presently in use to combat lung cancers have severe side effects because their toxicity is not sufficiently selective to cancer cells. For example, docetaxel administered at a dose of 100 mg/m^2 in a three-week cycle causes haematological toxicity (86% patients having grade 3 or 4 neutropenia).

[3] = system: human NCI-H460 cancer cells xenograft; test: Nude mouse xenograft, post-treatment-only, comparison with docetaxel; details: for Mean tumor volume at week 4: 0.012 mmol/kg i.v. (CB1a 50 mg/kg, docetaxel 10 mg/kg), saline 5,400 mm^3; for Mean tumor volume at week 4 / Mean body weight at week 4 / Mean tumor weight as % of that in saline treated mice: 5 injections per week for 4 weeks; for Body weight course: compared with saline treated mice; for Mean body weight at week 5: data not shown; for Mean tumor weight as % of that in saline treated mice: week 4, sacrificed
MRC-5 normal cells = test: Cell plate growth study, photographed; type: cell-based, human; details: 50 µM CB1a added after 4 days, photographed after 24 hours, 2×10^3 cells at start
Experimental: (§1) NCI-H460 cancer cells were grown on two cell plates (2×10^3 cells at start in each) – after 4 days, CB1a (50 µM) was added to one and not the other. […] This experiment was repeated but with normal cells. MRC-5 normal cells were grown on two cell plates (2×10^3 cells at start in each) – after 4 days, CB1a (50 µM) was added to one and not the other.
(§2) Photos A and B show without and with CB1a (50 µM), on NCI-H460 cancer cells, respectively. Photos C and D show without and with CB1a (50 µM), on MRC-5 normal cells, respectively. Initial cell concentrations on plates were 2×10^3 cells for all; photos were taken after 5 days incubation; where CB1a was applied it was done so at the end of day 4. Comparing A and B: one can note without CB1a there is significant cellular growth, as to be expected from a cancer cell line; with CB1a there is not, presumably because of a CB1a kill action against cancer cells.

NCI-H460 cancer cells [4] = test: Cell plate growth study, photographed; type: cell-based, human; details: 50 µM CB1a added after 4 days, photographed after 24 hours, 2×10^3 cells at start
Experimental: as §1, §2

NCI-H460 cancer cells [5] = test: Tumor-like spheroid (MCTS) formation, modified hanging drop method; type: cell-based, human; details: NCI-H460, 5×10^2 cells
Experimental: We used non-adhesive, bacterial culture-grade polystyrene Petri dishes. Approximately 5×10^2 NCI-H460 cancer cells (3×10^4 cells/ml) were deposited as a drop on the inner face of lids to 90 mm Petri dishes. These lids were then placed on their dishes, which were filled with 10 ml phosphate-buffered saline (PBS). A monolayer of NCI-H460 lung cancer cells was then de-attached by 0.25% Trypsin-EDTA. These dishes were then incubated at 37 C in a 5% CO2 incubator. This modified “hanging drop” method causes the cancer cells to grow in a tumor-like aggregation; which is called a MCTS. After 3 days incubation, CB1a was applied in different concentrations (5, 15, 30, 45 and 60 µM) to different plates and a photo was then taken of each plate after 36 hours. This methodology investigated the post-treatment of CB1a, after tumor formation. The pre-treatment effect of CB1a, before tumor formation, was also studied. CB1a was applied in different concentrations (5, 15, 30, 45 and 60 µM) to different plates and left for 30 minutes before the 0.25% Trypsin-EDTA de-attachment step. After this step, the plates were incubated for 3 days and 36 hours before being photographed.

[6] = system: human NCI-H460 cancer cells xenograft; test: Nude mouse xenograft, pre-and-post-treatment of CB1a; type: in vivo; details: 50 mg/kg s.c.
Experimental: Afterwards, the animal test experiments were performed.
Six mice were pre-treated with CB1a (50 mg/kg) 3 times in one week prior to them being subcutaneously xenografted with human tumorigenic NCI-H460 lung cancer cells (0.2 ml; 1×10^6 cells/ml). A control was studied in which saline was used instead of CB1a (6 mice in this control group). The dose of CB1a/saline was continued after the xenograft: 5 times per week for 5 weeks. The CB1a/saline injection point was in the dorsolateral neck area and the xenograft cancer cells were transplanted into the abdominal flank area of the mouse (Figure 5A). The distance between these two points is far (∼4 cm) as compared to the length of the mouse (∼6 cm). This distance tested whether CB1a could effectively travel in the blood stream without being destroyed. […] 36 days after the human lung cancer cells were xenografted on to the mouse – the mean volume of the tumor in the CB1a treated mice was just 19.3% of the tumor in the saline treated mice (Figure 5C); the mean weight of the tumor in CB1a treated mice was just 9% of the tumor in saline treated mice (Figure 5D). In other words, the tumor was ∼80% smaller and ∼90% lighter in CB1a treated mice.

[7] = Pharmacokinetics of CB1a in rat blood by competitive ELISA; type: in vivo; details: Sprague-Dawley rats, 50 mg/kg i.v., competitive ELISA with 5C5H5 antibody
Excerpt: Using this standard curve, an unknown concentration of CB1a in a test sample can then be found by finding its OD450nm (A/A0) value in an ELISA experiment. […] For our definitive standard curve, we used the one with a dilution rate of 1∶2000 and utilized this dilution rate when assaying test blood samples. We used a primary antibody dilution rate of 1∶5000.
Six […] male Sprague-Dawley rats (230–260 g; sourced from BioLASCO, Yilan, Taiwan) were housed (3 per cage) in a specific pathogen free animal room. The rats were intravenously injected with CB1a peptide (50 mg/kg) and blood samples were then collected from the tail vein of the rats at the following time points: 5, 20, 25, 38.5, 50, 60 and 240 minutes after the CB1a injection (6 samples taken at each of these time points). The blood samples were transferred to heparinized microcentrifuge tubes and centrifuged at 4,000 g for 5 minutes; then frozen for storage at −80°C.
The blood samples were analyzed via a competitive ELISA technique, rather than the more direct ELISA technique described earlier. Blood samples were diluted 100 fold and then mixed with a known concentration of CB1a antibody (2mg/ml in PBST buffer, including 1% BSA). […] The CB1a concentration recorded on the plate is added to the known CB1a concentration that is washed off, bound to the CB1a antibodies, to get the total CB1a concentration. […]

HFL1 cells = test: In vitro toxicity to other normal cells; type: cell-based; details: data not shown
3T3/3T6 tissue cells = test: In vitro toxicity to other normal cells; type: cell-based; details: data not shown
[8] = tumor-bearing nude mice, 0.012 mmol/kg i.v., n = 6
[9] = tumor-bearing nude mice, 0.012 mmol/kg i.v., 5 injections per week, n = 6
[10] = tumor-bearing nude mice, 0.012 mmol/kg i.v.

CC(=O)O[C@@]12CO[C@@H]1C[C@H](O)[C@@]1(C)C(=O)[C@H](O)C3=C(C)[C@@H](OC(=O)[C@H](O)[C@@H](NC(=O)OC(C)(C)C)c4ccccc4)C[C@@](O)([C@@H](OC(=O)c4ccccc4)[C@H]21)C3(C)C [docetaxel, reference compound]
Selectivity index (SI) of drugs presently on the market [1]: less than one | Patients having grade 3 or 4 neutropenia (haematological toxicity) [2]: 86% | Mean tumor volume at week 4 ([3]; n = 6): 3,200 mm^3 | Mean body weight at week 4 [3, 8]: 25 g | Mean body weight at week 2 (maximum) [3, 9]: 27 g | Body weight course [3, 10]: weight loss | Mean body weight at week 5 [3, 10]: 21 g | Mean tumor weight as % of that in saline treated mice ([3]; 0.012 mmol/kg i.v., n = 6): 73%

COc1cccc2c1C(=O)c1c(O)c3c(c(O)c1C2=O)C[C@@](O)(C(=O)CO)C[C@@H]3O[C@H]1C[C@H](N)[C@H](O)[C@H](C)O1 [doxorubicin]
Selectivity index (SI) of drugs presently on the market [1]: less than one

H-KWKVFKKIEKKWKVFKKIEKAGPKWKVFKKIEK-OH [CB1a]
Cell number on plate versus plate without CB1a (MRC-5 normal cells): does not kill these normal cells | Cell number on plate versus plate without CB1a (NCI-H460 cancer cells [4]): significantly less cells | Spheroid formation, post-treatment with CB1a (NCI-H460 cancer cells [5]; CB1a 5, 15, 30, 45, 60 µM applied after 3 days incubation, photo after 36 hours): tumor spheroids can still be observed | Spheroid formation, pre-treatment with CB1a (NCI-H460 cancer cells [5]; CB1a 5-60 µM applied 30 minutes before de-attachment, higher CB1a concentrations): no spheroids form | Mean tumor volume as % of that in saline treated mice ([6]; 36 days after xenograft, pre-and-post-treatment, n = 6): 19.3% | Mean tumor weight as % of that in saline treated mice ([6]; day 36, sacrificed, pre-and-post-treatment, n = 6): 9% | Tumor lighter than in saline treated mice ([6]; day 36, pre-and-post-treatment): ~90% | Tumor smaller than in saline treated mice ([6]; day 36, pre-and-post-treatment): ~80% | Deaths during the experiment ([6]; nude mice, 3 times in week before xenograft then 5 times per week for 5 weeks, n = 6): None of the mice died | Mean body weight compared with saline treated mice ([6]; nude mice, pre-and-post-treatment, n = 6): comparable to that of saline treated mice | Time for which a CB1a concentration that can kill cancer cells (≥25 µM or ≥105 µg/ml) endures in rat blood [7]: around 25 minutes | half-life ([7]; male, rat, iv, tail vein blood 5-240 minutes, n = 6): 16.4 min | Killing of normal cells at concentrations that kill lung cancer cells (HFL1 cells): do not kill | Killing of normal cells at concentrations that kill lung cancer cells (3T3/3T6 tissue cells): do not kill | Mean tumor volume at week 4 ([3]; n = 6): 3,100 mm^3 | Mean body weight at week 4 [3, 8]: 30.5 g | Mean body weight at the start [3, 9]: 25.5 g | Body weight course [3, 10]: gained weight at the same trajectory as saline treated mice | Mean body weight at week 5 [3, 10]: 32 g | Mean tumor weight as % of that in saline treated mice ([3]; 0.012 mmol/kg i.v., n = 6): 59%
